The text below walks through data of ChEMBL document CHEMBL1146228, “Stellettins L and M, cytotoxic isomalabaricane-type triterpenes, and sterols from the marine sponge Stelletta tenuis” (J Nat Prod, 2007).

What all share (format): functional, cell-based
One test relates to SMMC-7721. Kind of test: Cytotoxicity against SMMC7721 cells after 48 hrs by MTT assay. The settings on record: Homo sapiens, SMMC-7721, 48 h. Background: Formazan colour is commonly taken as a measure of viable cells.
Another test has as its system HT-29. Kind of test: Cytotoxicity against HT29 cells after 48 hrs by MTT assay. Particulars: Homo sapiens, HT-29, 48 h.
The subject of a further test is AGS. Briefly: Cytotoxicity against AGS cells after 48 hrs by MTT assay. The settings on record: Homo sapiens.
Another test has as its system A549. Kind of test: Cytotoxicity against A549 cells after 48 hrs by MTT assay. The settings on record: Homo sapiens, A549, 48 h.

With `O=c1[nH]cc(F)c(=O)[nH]1` [FLUOROURACIL], the half-inhibitory concentration (IC50) is 51 µM in the test on SMMC-7721, 540 µM in the test with HT-29, 370 µM in the test with AGS and 9.2 µM in the test with A549.
On to `CC(/C=C/C=C(\C)C(=O)O)=C\C=C\C(C)=C1\C(=O)C[C@H]2[C@@]3(C)CC[C@H](O)C(C)(C)[C@@H]3CC[C@]12C` [STELLETTIN L], for which the IC50 with SMMC-7721 was 120 µM; in the test with HT-29, 33 µM; in the test with AGS, 3.9 µM; in the test on A549 it was 28 µM.
Taken in the same sequence, the figures for `CC(/C=C/C=C(C)/C=C/C=C(\C)C(=O)O)=C1/C(=O)C[C@H]2[C@@]3(C)CC[C@H](O)C(C)(C)[C@@H]3CC[C@]12C` [STELLETTIN M] were 90 µM, 42 µM, 2.1 µM and 34 µM.
Taken in the same sequence, the figures for `CC[C@]1(O)C[C@H]2CN(CCc3c([nH]c4ccccc34)[C@@](C(=O)OC)(c3cc4c(cc3OC)N(C=O)[C@H]3[C@@](O)(C(=O)OC)[C@H](OC(C)=O)[C@]5(CC)C=CCN6CC[C@]43[C@@H]65)C2)C1` [VINCRISTINE] were < 0.12 µM, 0.21 µM, < 0.12 µM and 0.36 µM.

As usually defined, the IC50 is the concentration at which inhibition is half-maximal. A lower IC50 goes with higher potency.
